Data: patent US11229628B2, “TRPA1 and TRPV4 inhibitors and methods of using the same for organ-specific inflammation and itch” (Duke University, priority 2015, dated 2022)

Columns and labels:
[1] = biological target: TRPV4 (Homo sapiens, UniProt Q9HBA0); test: TRPV4-mediated calcium influx in N2a cells with targeted expression of human TRPV4 (Ca2+ imaging, activation with 10 nM GSK101); format: cell-based; design: expressed in transfected cells; host or cells: N2a cells; settings: 2.5 μM inhibitor, pre-incubation 10 min
TRPV4, sequence (Q9HBA0 whole entry): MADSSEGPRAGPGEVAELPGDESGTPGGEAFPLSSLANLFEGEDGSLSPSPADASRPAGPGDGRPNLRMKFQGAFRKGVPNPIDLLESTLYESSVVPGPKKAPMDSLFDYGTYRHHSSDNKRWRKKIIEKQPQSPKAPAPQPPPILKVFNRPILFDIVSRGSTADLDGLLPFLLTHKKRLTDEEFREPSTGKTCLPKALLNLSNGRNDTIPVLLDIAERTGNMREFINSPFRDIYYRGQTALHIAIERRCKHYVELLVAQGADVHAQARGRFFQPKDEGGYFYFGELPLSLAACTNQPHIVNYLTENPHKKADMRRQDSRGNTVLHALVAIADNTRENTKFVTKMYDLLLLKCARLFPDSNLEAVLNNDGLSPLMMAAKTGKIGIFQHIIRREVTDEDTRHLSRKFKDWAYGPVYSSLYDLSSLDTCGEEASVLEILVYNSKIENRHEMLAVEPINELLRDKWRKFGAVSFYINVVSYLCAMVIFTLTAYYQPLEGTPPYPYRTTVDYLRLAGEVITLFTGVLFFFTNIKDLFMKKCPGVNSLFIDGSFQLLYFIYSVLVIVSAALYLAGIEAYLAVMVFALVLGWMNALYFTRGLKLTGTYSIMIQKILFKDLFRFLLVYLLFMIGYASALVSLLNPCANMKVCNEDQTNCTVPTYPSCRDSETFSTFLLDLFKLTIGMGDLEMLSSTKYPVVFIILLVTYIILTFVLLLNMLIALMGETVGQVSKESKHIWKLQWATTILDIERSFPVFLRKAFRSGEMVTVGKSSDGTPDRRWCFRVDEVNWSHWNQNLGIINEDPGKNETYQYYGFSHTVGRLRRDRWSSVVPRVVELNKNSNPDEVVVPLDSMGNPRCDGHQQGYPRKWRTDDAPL
Experimental: Compounds (GSK205, 16-12, 16-13, 16-14, 16-18, 16-8, and 16-8/18hy) were tested for their effect on TRPV4-mediated calcium influx in N2a cultured cells with targeted expression of human TRPV4. Ca2+ imaging was performed according to Li et al. (Environ. Health Perspect. 2011, 119, 784-93) and Moore et al. (Proc. Natl. Acad. Sci. U.S.A. 2013, 110, E3225-E3234). Briefly, Ca2+ imaging of primary mouse epidermal keratinocytes (1° MK) in response to chemical activation of TRPV4 was conducted after loading with 2 μM fura2-AM, following a ratiometric Ca2+-imaging protocol with 340/380 nm blue light for dual excitation. Ratios of emissions were acquired at 0.5 Hz. ΔR/R0 was determined as the fraction of the increase of a given ratio over baseline ratio, divided by baseline ratio. For stimulation of cells with UVB, where fura-2 was not suitable because of the proximity of stimulation with 340/380 nm vs. 295 nm, 2 μM fluo4-AM was used instead. Ca2+ imaging was carried out at 488 nm excitation, acquisition of emissions at 0.5 Hz, expressed as ΔF/F0. TRPV4 was activated with 10 nM GSK101, a specific activator, which had no effect on RFP-transfected cells. Each of the […] compounds were added to a concentration of 2.5 μM, and its effect was observed.
The ordinate is the peak calcium concentration in the cells (average n>75 cells) in nM.

[2] = biological target: T1, human TRPV2 (Homo sapiens, UniProt Q9Y5S1); test: Ca2+ signal in N2a cells transfected with human TRPV2 (hypotonicity stimulation); format: cell-based; settings: hypotonicity (260 mosmol/L) stimulation
T1 construct: expressed in transfected cells; host or cells: N2a cells
T1 sequence (Q9Y5S1 1-764): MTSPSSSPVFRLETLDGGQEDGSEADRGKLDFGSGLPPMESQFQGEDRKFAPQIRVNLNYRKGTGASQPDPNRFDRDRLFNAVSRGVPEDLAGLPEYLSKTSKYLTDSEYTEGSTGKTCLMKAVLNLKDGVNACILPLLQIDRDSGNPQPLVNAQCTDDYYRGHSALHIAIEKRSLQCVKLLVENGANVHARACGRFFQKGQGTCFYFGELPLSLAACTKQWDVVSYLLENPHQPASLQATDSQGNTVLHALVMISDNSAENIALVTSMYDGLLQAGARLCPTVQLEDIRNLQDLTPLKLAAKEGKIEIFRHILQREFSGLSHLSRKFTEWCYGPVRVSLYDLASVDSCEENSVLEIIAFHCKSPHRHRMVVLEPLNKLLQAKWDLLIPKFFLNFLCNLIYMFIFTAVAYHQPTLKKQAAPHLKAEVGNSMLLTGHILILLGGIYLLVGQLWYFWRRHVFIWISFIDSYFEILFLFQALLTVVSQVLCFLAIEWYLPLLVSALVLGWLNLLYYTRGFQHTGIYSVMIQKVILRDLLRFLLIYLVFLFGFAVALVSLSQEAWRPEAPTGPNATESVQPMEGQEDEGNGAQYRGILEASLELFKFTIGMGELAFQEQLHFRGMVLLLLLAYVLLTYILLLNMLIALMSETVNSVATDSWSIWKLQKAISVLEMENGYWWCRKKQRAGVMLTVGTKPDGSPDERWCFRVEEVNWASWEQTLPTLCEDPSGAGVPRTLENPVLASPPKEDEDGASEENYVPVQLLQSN
Experimental: (§1) Compounds were tested for their effect on TRPV1, TRPV2, and TRPV3. Methods were similar to those described in Example 15. Briefly, N2a cells were transfected with human TRPV1, TRPV2, or TRPV3. eGFP-transfection was used as control. For specific stimulation of TRPV1, 5 μM capsaicin was used. For stimulation of TRPV2, hypotonicity (260 mosmol/L) was used, based on previous reports of TRPV2 being osmotically responsive. N2a cells were not responsive to hypotonicity, and neither were control-transfected cells. For TRPV3-expressing cells, camphor (20% of a commercially available stock solution) was used. […] Stimulation and control protocols were applied as for TRPA1-expressing N2a cells as detailed above in Example 15.
(§2) For TRPV1, TRPV2, and TRPV3, Ca2+ transience was not affected by administration of 16-8 or 16-8/18hy.

[3] = biological target: T2, human TRPV1 (Homo sapiens, UniProt Q8NER1); test: Ca2+ signal in N2a cells transfected with human TRPV1 (capsaicin stimulation); format: cell-based; settings: 5 μM capsaicin stimulation
T2 construct: expressed in transfected cells; host or cells: N2a cells
T2 sequence (Q8NER1 whole entry): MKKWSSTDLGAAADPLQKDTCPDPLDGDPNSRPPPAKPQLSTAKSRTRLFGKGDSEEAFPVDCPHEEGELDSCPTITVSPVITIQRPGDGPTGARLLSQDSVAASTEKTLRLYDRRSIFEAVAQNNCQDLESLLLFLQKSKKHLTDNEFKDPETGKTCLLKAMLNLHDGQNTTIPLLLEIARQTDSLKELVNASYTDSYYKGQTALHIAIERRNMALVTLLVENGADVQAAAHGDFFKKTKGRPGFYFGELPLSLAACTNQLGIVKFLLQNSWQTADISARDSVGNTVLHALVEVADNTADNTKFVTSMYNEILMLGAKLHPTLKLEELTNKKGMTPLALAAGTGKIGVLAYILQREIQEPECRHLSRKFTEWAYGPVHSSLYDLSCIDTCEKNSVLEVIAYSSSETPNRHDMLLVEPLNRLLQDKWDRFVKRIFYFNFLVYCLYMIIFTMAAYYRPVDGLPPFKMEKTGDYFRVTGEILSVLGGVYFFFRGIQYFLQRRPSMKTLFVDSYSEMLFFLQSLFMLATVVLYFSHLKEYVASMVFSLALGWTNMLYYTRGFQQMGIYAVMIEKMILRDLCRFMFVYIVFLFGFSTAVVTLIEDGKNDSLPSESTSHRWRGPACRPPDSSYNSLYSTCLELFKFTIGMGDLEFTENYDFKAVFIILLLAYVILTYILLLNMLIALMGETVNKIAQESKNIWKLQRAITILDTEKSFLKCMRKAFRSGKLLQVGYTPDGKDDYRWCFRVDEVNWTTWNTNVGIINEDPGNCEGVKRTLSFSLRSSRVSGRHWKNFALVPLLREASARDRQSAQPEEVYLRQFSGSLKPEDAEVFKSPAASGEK
Experimental: as §1, §2

[4] = biological target: T3, human TRPA1 (Homo sapiens, UniProt O75762); test: Ca2+ transient in N2a cells transfected with human TRPA1, evoked by AITC; format: cell-based; settings: for inhibitory activity against human TRPA1: 5 μM compound
T3 construct: expressed in transfected cells; host or cells: N2a cells
T3 sequence (O75762 whole entry): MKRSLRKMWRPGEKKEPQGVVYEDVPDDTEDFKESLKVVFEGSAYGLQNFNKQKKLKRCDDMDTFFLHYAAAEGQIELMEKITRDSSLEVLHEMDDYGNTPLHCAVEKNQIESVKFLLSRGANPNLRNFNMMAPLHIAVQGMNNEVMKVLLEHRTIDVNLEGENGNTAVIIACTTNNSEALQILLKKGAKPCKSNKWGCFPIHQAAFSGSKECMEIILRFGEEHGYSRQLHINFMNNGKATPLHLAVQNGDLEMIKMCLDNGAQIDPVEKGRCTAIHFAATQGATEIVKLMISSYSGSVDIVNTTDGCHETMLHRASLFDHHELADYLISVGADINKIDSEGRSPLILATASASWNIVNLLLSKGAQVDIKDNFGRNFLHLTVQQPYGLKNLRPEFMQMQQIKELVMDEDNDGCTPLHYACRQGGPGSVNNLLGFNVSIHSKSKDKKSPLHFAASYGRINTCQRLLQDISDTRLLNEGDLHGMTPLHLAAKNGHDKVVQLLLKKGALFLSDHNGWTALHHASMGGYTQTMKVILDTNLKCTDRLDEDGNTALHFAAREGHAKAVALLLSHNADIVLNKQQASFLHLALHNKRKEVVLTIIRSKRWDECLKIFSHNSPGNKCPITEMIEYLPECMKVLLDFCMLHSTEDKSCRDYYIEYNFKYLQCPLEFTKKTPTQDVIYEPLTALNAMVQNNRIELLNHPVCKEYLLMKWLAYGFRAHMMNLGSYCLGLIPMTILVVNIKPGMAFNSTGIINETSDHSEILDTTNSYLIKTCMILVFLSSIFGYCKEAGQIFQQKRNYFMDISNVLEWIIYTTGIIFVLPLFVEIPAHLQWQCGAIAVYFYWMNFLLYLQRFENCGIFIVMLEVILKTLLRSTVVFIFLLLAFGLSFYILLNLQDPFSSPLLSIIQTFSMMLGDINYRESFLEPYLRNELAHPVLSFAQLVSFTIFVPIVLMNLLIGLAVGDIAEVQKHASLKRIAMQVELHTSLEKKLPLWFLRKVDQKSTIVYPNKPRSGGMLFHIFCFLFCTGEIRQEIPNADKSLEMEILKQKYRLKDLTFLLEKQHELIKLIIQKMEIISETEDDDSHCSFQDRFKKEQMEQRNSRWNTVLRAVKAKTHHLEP
Experimental: Compounds were tested for their effect on TRPA1. N2a permanent cells were transfected with human TRPA1 cDNA, using a pcDNA3.1 expression plasmid. They were co-transfected with eGFP-expressing plasmid, or, for control, with eGFP plasmid only.
Cells were then pre-exposed to 5 μM of compounds 16-8 and 16-8/18hy for 10 min.
Averaged Ca2+ signal is shown from >75 cells. The resulting Ca2+ transient evoked by 60 μM AITC was reduced by >80% upon administration of compound 16-8 or 16-8/18hy at 5 μM, indicating appreciable TRPA1-inhibitory effects of both compounds.

[5] = system: BL6 mice; test: Formalin-evoked nocifensive behavior, whiskerpad injection pain model in mice; format: in vivo, mouse; settings: for formalin-evoked nocifensive behavior at the 45-min time-point / formalin-evoked nocifensive behavior, time course: 0.5 mM/10 μL whiskerpad; for formalin-evoked nocifensive behavior, quantitation (in particular second phase): pre-injected into whiskerpad at 0.5 mM/10 μL, 15 min before formalin
Experimental: Compounds were tested for their effect in reducing pain using an in vivo pain model in mice. For mouse formalin-evoked irritant behavior measurements, mice were well-fed, well-rested, and tested at the same time of day, at the same time-point of their circadian rhythm. They were allowed to acclimate to a plexiglas chamber for at least 30 min before testing, and received 10 μL subcutaneous injection of 4% of formalin (diluted from an aqueous solution of commercial 37% formaldehyde with normal saline (NS)) through a 30-gauge needle into the right whiskerpad, as further detailed in Luccarini et al. (J. Pain, 2006, 7, 908-914). Normal saline was used as control injection. After injection, mice were immediately placed back into the chamber and the rubbing behavior was recorded by a private consumer-type video-camera for a 45 min observation period. The recording time was divided into 9 blocks of 5 min, and a nociceptive score was determined per block by measuring the time that the animals spent rubbing the injected area predominantly with the ipsilateral fore-paw and rarely with hind-paw. This rubbing behavior with fore-paw is evoked by pain, which is distinct from itch behavior. Behavioral analysis was conducted by observers blinded to treatment.
To investigate the effects of the specific compounds GSK205, 16-8, and 16-8/18hy on formalin-induced nociceptive behavior, mice received a single subcutaneous injection of the compounds into the whiskerpad (10 μL, dissolved in 4% DMSO) 15 min before formalin injection. Control animals received the same volume of NS, 4% DMSO.
Note the biphasic response and “clean” controls. […] This concentration had no effect on residual nocifensive behavior in Trpv4−/− mice. […] Also note that none of the compounds influenced the first phase, which was caused by the direct irritation that formalin causes on peripheral whisker-pad nerve endings.

inhibition of TRPA1 activity ([4]; doses below or equaling 25 μM)	Structure (SMILES)	inhibition of TRPV4-mediated calcium influx (peak calcium concentration in the cells) [1]	Ca2+ transience, TRPV2 [2]	Ca2+ transience, TRPV1 [3]	inhibitory activity against human TRPA1 [4]	formalin-evoked nocifensive behavior at the 45-min time-point [5]	formalin-evoked nocifensive behavior, time course [5]	formalin-evoked nocifensive behavior, quantitation (in particular second phase) [5]
–	CCN(CCc1ccc(Nc2nc(-c3ccccc3)cs2)cc1)Cc1ccccc1 [16-8/18hy]	did not show enhanced inhibition over 16-8	not affected	not affected	showed inhibitory activity	reversal to control levels	significantly attenuated nocifensive behavior	significant attenuation of nocifensive behavior
–	CN(CCc1ccc(Nc2nc(-c3ccccc3)cs2)cc1)Cc1ccccc1 [Compound 16-8]	most potent	not affected	not affected	showed inhibitory activity	reduction to control levels	significantly attenuated nocifensive behavior	significant attenuation of nocifensive behavior
did not inhibit TRPA1 activity	CN(CCc1ccc(Nc2nc(-c3cccnc3)cs2)cc1)Cc1ccccc1 [GSK205]	very low potency	–	–	–	–	not different from control	lack of effect
